# Assay results published in patent US5626869A, “Pharmaceutical composition containing a defined lipid system” (Pharmacia & Upjohn AB, priority 1992, dated 1997).
# Tested on: FXa
# Conditions: in vivo
# Description: New Zealand white rabbits of both sexes, weighing 2.5-3.5 kg were used in all experiments. […] The rabbits were anaesthetized with Mebumal, 20 mg/kg. The anaesthesia was subsequently maintained as required. The animals were shaved and a medial laparotomy performed. The test compounds were then injected directly into the duodenum, after which the peritoneal cavity was closed. Rectal administration was performed by means of a syringe coupled to a plastic tube designed for use in the rectum of rabbits. The dosage was checked by weighing of the syringe and connecting tubings before and after administering the test compounds.
# Blood samples (1 ml) were collected at 0.25, 0.5, 0.75, 1, 1.5, 2, 2.5, 3, 4, 5, 6, 7, 8, 9, and 10 hours with the aid of catheter inserted in the ear artery and mixed with sodium […] to a final concentration of 0.04M. The tubes were kept on ice until centrifuged at 800 g for 10 minutes. The anti-FXa activity in plasma was determined with an initial rate assay using bovine FXa (Kabi Pharmacia) and the chromogenic substrate S-2222.
substance,measurement,setting,value
heparin,degree of absorption compared with Fragmin,,significantly lower than that of Fragmin®
same,rectal absorption when admixed with the lipid system,,significantly increased
same,anti-FXa activity detected in plasma,2 mg/kg,detectable levels of anti-FXa activity
same,average absorption,"rabbit, 2 mg/kg",15.7%±8
